Here are results for four compounds from patent EP4813991A1 (iLeadBMS Co., Ltd., priority 2023, dated 2025).

Read-outs that look alike come from different tables or passages of the source.

One assay addresses CDK13 (Homo sapiens, UniProt Q14004). Kind of assay: CDK13 kinase inhibitory activity assay (33P-ATP filter binding). In kind it is biochemical. The method in brief:
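Radiometric filter-binding read-out: after 20 min compound–enzyme/substrate pre-incubation across 9 concentrations, reaction started with ^33P-γ-ATP and run 120 min at room temperature. Filter-bound ^33P-substrate measured after 0.75 % phosphoric acid washes; remaining activity versus DMSO gives IC50.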

A further assay concerns Cyclin K. The assay can be described thus: Analysis of Cyclin K degradation ability in HCC70 breast cancer cells (western blot). In kind it is cell-based. The note with it: 8 hours, compared to the negative control group (DMSO), FIGs. 1 to 3. The protocol: In order to confirm the Cyclin K degradation ability of the Example compounds, HCC70 breast cancer cells and MKN45 gastric cancer cells were cultured in RPMI-1640 medium supplemented with 10 % FBS, and then the cells were collected to prepare cell suspensions. The HCC70 breast cancer cell suspension was dispensed at a cell number of 2.0 X 10^6 per 6-well and cultured in a 5 % CO2 cell incubator at 37 °C for 24 hours, and the MKN45 gastric cancer cell suspension was dispensed at a cell number of 5.0 X 10^6 per 6-well and cultured in a 5 % CO2 cell incubator at 37 °C for 24 hours. The next day, each Example compound dissolved and diluted in DMSO across 4 to 5 concentration ranges and a negative control group (DMSO-treated group) were added to the 6-wells, and the HCC70 breast cancer cells were treated for 8 hours while the MKN45 gastric cancer cells were treated with the compounds for 8 hours or 24 hours. After completion of the compound treatment, the medium was removed, each cell was washed with PBS, and then 100 µL of RIPA buffer for cell lysis was added to each 6-well to collect cell lysates. The protein concentration of the cell lysates was quantified by the […], and loading buffer was added to adjust the protein concentration to 30 µg, followed by reaction at 85 °C for 10 minutes, centrifugation, and standing at room temperature. After electrophoresis on a 4-12 % Bis-Tris gel, proteins were transferred to a nitrocellulose membrane. Primary antibodies, Cyclin K (1:1000, Bethyl Lab) and Vinculin (1:1000, Sigma), were attached to the membrane, respectively, and then labeled using a secondary antibody (1:10000, LI-COR).
(In western blotting, separated proteins are transferred to a membrane and probed.)

The next assay addresses CDK12 (Homo sapiens, UniProt Q9NYV4). Kind of assay: Cellular CDK12 inhibitory activity assay (Ser2 phosphorylation of RNA polymerase II subunit B1 CTD in MDA-MB-231 cells). In kind it is cell-based. Also on record: using MDA-MB-231 breast cancer cells; endogenous in cells; host or cells: MDA-MB-231. To be noted: MDA-MB-231 cells, 6 hours treatment; read-out: pRpbl CTD S2 IC50. The method in brief: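 MDA-MB-231 cells in L-15 with 10 % FBS were treated with compound at 9 concentrations for 6 h at 37 °C, 0 % CO2. In-Cell Western read phospho-Ser2 and total RNA polymerase II CTD on a Li-COR Odyssey; IC50 from 4-parameter dose-response fit.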

A further assay concerns HCC70 cells. The assay can be described thus: Breast cancer cell proliferation inhibitory activity, HCC70. To be noted: Homo sapiens, 72 hours, CellTiter Glo, relative IC50. In kind it is cell-based. The procedure:
(§1) Experiments were conducted using three types of breast cancer cell lines to measure the cell proliferation inhibitory ability of each Example compound. For HCC70 cells, 100 µL of cell suspension was dispensed into a 96-well plate using RPMI1640 (Invitrogen) medium containing 10 % FBS, followed by incubation in a cell incubator at 37 °C and 5 % CO2. For BT-20 cells, 100 µL of cell suspension was dispensed into a 96-well plate using EMEM (Invitrogen) medium containing 10 % FBS, followed by incubation in a cell incubator at 37 °C and 5 % CO2. For MDA-MB-436 cells, 100 µL of cell suspension was dispensed into a 96-well plate using L-15 (Invitrogen) medium containing 10 % FBS, followed by incubation in a cell incubator at 37 °C and 0 % CO2. The next day, each Example compound dissolved and diluted in DMSO across 9 concentration ranges and a DMSO control group were treated on the cells for 72 hours. After completion of the compound treatment, 100 µL of CellTiter Glo (Promega) reagent was added to each well of the 96-wellplate, followed by shaking for 10 minutes and standing at room temperature for 10 minutes. After inserting the 96-well plate into an Envision plate reader (PerkinElmer), luminescence signals were measured. Relative IC50 values were calculated by fitting a dose-response curve using XL fit (IDBS Ltd) software.
(§2) The breast cancer cell proliferation inhibitory activities of the Example compounds measured by the method described above were evaluated according to the following criteria, and the results are presented in Table 15.
Background: In ATP-based viability assays light output follows the ATP content of the culture.

For the next assay, the system named is MDA-MB-436 cells. Kind of assay: Breast cancer cell proliferation inhibitory activity, MDA-MB-436. It is filed as cell-based. To be noted: Homo sapiens, 72 hours, CellTiter Glo, relative IC50. The protocol:
as §1, §2

[1] abbreviates: kinase reaction 120 minutes, 33P-gamma-ATP, read-out: CDK13 IC50.

For orientation: IC50 means the midpoint of a concentration-inhibition curve.

Chain of CDK12 (Q9NYV4 whole entry, species assumed): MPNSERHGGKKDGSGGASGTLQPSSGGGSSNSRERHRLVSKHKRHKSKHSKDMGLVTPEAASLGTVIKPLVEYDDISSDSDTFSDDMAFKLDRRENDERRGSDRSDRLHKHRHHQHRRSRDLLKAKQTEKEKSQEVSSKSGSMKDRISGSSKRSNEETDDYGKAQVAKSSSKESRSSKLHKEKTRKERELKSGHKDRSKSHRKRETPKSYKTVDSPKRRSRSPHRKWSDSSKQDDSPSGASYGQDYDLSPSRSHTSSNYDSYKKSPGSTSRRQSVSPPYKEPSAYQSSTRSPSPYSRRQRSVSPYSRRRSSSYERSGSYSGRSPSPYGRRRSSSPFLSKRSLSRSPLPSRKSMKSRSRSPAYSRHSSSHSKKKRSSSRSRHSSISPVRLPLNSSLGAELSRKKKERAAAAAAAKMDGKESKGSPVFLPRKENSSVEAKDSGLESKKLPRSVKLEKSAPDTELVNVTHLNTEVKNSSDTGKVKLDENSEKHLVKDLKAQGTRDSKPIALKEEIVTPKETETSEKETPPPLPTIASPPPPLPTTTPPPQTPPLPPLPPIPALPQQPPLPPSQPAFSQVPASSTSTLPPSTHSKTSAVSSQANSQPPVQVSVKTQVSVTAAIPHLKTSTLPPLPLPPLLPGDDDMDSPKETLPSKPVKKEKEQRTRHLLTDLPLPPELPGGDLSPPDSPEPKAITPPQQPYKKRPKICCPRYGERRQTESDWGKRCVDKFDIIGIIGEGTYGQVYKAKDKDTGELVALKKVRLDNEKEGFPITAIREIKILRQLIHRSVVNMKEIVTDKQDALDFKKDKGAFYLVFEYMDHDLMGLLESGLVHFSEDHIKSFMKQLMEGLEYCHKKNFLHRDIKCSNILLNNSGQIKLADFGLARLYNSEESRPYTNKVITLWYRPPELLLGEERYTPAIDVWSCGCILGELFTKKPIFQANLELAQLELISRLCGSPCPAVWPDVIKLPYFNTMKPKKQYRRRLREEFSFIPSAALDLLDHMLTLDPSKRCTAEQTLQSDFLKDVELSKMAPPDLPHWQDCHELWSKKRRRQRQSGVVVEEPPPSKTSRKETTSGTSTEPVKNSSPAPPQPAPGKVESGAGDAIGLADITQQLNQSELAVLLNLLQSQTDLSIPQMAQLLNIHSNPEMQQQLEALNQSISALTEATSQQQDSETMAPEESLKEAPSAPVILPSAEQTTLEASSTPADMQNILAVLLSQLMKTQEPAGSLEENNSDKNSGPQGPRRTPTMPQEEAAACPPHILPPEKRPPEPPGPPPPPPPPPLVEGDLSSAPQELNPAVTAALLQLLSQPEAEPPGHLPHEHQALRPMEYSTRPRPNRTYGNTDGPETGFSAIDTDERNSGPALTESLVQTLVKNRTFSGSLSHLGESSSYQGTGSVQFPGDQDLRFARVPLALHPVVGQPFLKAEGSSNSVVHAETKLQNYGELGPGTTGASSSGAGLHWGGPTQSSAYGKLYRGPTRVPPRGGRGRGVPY
Chain of CDK12 (O75909 whole entry partner, species assumed): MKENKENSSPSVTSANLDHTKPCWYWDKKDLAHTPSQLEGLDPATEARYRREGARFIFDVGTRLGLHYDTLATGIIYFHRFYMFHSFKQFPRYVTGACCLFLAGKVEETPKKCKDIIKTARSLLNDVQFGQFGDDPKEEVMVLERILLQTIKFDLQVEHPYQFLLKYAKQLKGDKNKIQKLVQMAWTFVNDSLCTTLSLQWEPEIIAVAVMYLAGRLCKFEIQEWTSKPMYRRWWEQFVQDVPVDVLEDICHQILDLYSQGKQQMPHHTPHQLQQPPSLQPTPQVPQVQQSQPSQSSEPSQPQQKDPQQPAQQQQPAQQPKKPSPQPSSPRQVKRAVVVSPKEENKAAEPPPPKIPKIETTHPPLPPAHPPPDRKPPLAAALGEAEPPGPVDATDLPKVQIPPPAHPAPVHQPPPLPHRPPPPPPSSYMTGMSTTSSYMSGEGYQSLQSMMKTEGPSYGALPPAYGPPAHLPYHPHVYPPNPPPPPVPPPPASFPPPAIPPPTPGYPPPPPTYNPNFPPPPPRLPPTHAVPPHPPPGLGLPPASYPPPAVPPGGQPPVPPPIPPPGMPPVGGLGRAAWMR
Chain of CDK13 (Q14004 whole entry, species assumed): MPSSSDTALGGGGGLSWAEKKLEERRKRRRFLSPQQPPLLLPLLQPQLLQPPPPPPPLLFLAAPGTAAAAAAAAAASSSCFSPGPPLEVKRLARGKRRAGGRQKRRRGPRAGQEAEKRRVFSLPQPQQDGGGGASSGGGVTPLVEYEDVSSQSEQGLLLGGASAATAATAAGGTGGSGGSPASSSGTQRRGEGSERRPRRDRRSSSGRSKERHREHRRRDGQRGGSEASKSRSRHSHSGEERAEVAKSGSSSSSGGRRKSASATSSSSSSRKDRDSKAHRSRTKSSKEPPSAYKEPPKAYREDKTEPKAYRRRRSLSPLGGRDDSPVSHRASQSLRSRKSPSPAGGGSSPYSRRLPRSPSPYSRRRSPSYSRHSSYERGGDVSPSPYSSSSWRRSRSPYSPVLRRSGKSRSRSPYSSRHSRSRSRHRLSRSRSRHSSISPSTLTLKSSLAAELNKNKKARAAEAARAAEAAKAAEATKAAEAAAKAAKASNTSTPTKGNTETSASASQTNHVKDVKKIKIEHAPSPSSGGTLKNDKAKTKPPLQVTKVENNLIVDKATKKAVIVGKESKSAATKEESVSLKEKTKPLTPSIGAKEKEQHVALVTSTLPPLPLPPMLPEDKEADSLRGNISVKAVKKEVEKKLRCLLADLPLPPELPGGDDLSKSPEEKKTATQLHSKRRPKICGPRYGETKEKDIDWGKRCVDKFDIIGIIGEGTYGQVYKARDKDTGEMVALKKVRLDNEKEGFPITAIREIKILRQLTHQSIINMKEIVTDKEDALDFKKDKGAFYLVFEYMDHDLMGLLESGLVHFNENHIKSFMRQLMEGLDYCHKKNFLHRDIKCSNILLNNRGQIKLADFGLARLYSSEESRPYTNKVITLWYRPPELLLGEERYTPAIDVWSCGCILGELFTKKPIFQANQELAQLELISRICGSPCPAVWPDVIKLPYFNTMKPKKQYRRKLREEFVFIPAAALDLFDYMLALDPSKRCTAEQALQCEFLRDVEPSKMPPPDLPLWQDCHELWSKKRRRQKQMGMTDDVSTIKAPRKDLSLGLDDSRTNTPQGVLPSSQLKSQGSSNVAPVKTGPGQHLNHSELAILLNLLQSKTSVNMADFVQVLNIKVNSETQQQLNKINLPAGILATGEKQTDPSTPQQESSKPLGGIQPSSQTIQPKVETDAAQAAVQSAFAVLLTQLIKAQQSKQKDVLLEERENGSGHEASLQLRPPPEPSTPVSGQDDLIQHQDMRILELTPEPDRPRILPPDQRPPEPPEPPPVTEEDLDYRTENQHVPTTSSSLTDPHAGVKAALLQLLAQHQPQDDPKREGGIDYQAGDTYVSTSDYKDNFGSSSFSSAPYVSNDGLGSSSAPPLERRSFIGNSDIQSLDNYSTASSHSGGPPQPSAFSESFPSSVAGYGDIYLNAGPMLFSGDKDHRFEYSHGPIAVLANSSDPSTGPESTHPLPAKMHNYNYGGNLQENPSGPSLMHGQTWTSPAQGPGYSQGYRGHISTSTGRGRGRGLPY
Chain of CDK13 (O75909 whole entry partner, species assumed): as the sequence (O75909 whole entry partner, species assumed) above

For the compound `Nc1ncc(-c2cc(NCc3nc4cc(Cl)c(Cl)cc4[nH]3)c3ncc(C(F)(F)F)n3n2)cn1` [Example 40], the IC50 is < 100 nM on CDK13 (setting [1]) and < 300 nM at CDK12. For the same compound, in the assay with Cyclin K, the “Cyclin K degradation ability” value was “strongly degrade Cyclin K”.
On to `N#CC1CN(c2cc(NCc3nc4cc(Cl)c(Cl)cc4[nH]3)c3ncc(C(F)(F)F)n3n2)C1` [Example 30, 1-(8-(((5,6-dichloro-1H-benzol[d]imidazol-2-yl)methyl)amino)-3-(trifluoromethyl)imidazo[1,2-b]pyridazin-6-yl)azetidine-3-carbonitrile], for which the IC50 at CDK13 (setting [1]) is < 100 nM; in the assay with HCC70 cells it was ≤ 50 nM; in the assay with MDA-MB-436 cells it was ≤ 50 nM; at CDK12 it was < 300 nM. Further, in the assay on Cyclin K, the “Cyclin K degradation ability” value is reported as “strongly degrade Cyclin K”.
In the case of `CN1CCN(c2cc(NCc3nc4cc(Cl)c(Cl)cc4[nH]3)c3ncc(C(F)(F)F)n3n2)CC1` [Example 29, N-((5,6-dichloro-1H-benzo[d]imidazol-2-yl)methyl)-6-(4-methylpiperazin-1-yl)-3-(trifluoromethyl)imidazo[1,2-b]pyridazin-8-amine], the IC50 on CDK13 (setting [1]) is < 100 nM; in the assay with HCC70 cells, ≤ 50 nM; in the assay on MDA-MB-436 cells, ≤ 50 nM; at CDK12, < 300 nM.
Turning to `CN1CCN(c2cc(NCc3nc4ccc(F)c(F)c4[nH]3)c3ncc(C(F)(F)F)n3n2)CC1` [Example 8, N-((6,7-difluoro-1H-benzo[d]imidazol-2-yl)methyl)-6-(4-methylpiperazin-1-yl)-3-(trifluoromethyl)imidazo[1,2-b]pyridazin-8-amine], the IC50 at CDK13 is < 100 nM; in the assay with HCC70 cells it was ≤ 50 nM; with MDA-MB-436 cells, ≤ 50 nM; on CDK12, < 300 nM. In the assay with Cyclin K, the “Cyclin K degradation ability” value is recorded as “strongly degrade Cyclin K”.
